pIC50, pKd: −log10 of the molar value. ≈ marks a conversion by molar mass, not a printed value.
Assays:
[1] = Fraction unbound in human plasma; assay type: ADME, cell-free
[2] = Fraction unbound in mouse plasma; assay type: ADME, cell-free
[3] = Fraction unbound in 10% fetal calf serum; assay type: ADME, cell-free, Bos taurus; conditions: cattle
[4] = molecular target: Gamma-secretase (Homo sapiens) (UniProt Q96BI3+Q9NZ42+Q8WW43+P49768+Q92542+P49810); assay: (§1) Modulation of gamma secretase in human H4 cells over expressing human APP695 harboring K595N/M596L Swedish double mutant assessed as reduction in Abeta42 production after 24 hrs by Alphalisa assay; assay type: cell-based
Gamma-secretase = assay: as §1; assay type: cell-based
[5] = (§2) Modulation of mouse gamma secretase assessed as reduction in Abeta42 production
Mus musculus [6] = species: Mus musculus; assay: as §2
Mus musculus [7] = assay: In vivo modulation of gamma secretase in APP-Swedish transgenic mouse assessed as reduction in Abeta42 production by measuring remaining Abeta42 level at 1 mg/kg, po measured after 4 hrs by ELISA or AlphaLISA assay relative to control; assay type: functional
Mus musculus [8] = assay: In vivo modulation of gamma secretase in APP-Swedish transgenic mouse assessed as reduction in Abeta42 production by measuring remaining Abeta42 level at 3 mg/kg, po measured after 4 hrs by ELISA or AlphaLISA assay relative to control; assay type: functional
Mus musculus [9] = assay: In vivo modulation of gamma secretase in APP-Swedish transgenic mouse assessed as reduction in Abeta42 production by measuring remaining Abeta42 level at 10 mg/kg, po measured after 4 hrs by ELISA or AlphaLISA assay relative to control; assay type: functional
[10] = Octanol/water distribution co-efficient, log D of the compound at pH 7.4; assay type: physicochemical
[11] = Solubility of compound by lyophilisation solubility assay; assay type: physicochemical
[12] = Clearance in human hepatocytes assessed per million cells; assay type: ADME, cell-based, Hepatocyte; conditions: read-out: CLH
[13] = Clearance in mouse hepatocytes assessed per million cells; assay type: ADME, cell-based, Hepatocyte; conditions: read-out: CLH
[14] = molecular target: Voltage-gated inwardly rectifying potassium channel KCNH2 (Homo sapiens, UniProt Q12809); assay: (§3) Inhibition of human ERG
hERG (KCNH2) = hERG (KCNH2) (Homo sapiens, UniProt Q12809); assay: as §3; conditions: human
[15] = molecular target: Phosphatidylinositol 4-kinase beta (Homo sapiens, UniProt Q9UBF8); assay: Binding affinity to PIK4CB (unknown origin); assay type: ADME
Mus musculus [16] = assay: In vivo modulation of gamma secretase in APP-Swedish transgenic mouse assessed as reduction in Abeta42 production by measuring remaining Abeta42 level at 0.3 mg/kg, po measured after 4 hrs by ELISA or AlphaLISA assay relative to control; assay type: functional
Mus musculus [17] = assay: In vivo modulation of gamma secretase in po dosed APP-Swedish transgenic mouse assessed as reduction in total Abeta42 production level in brain administered as single dose by ELISA or AlphaLISA assay; assay type: functional, organism-based
Keratinocyte = assay: Phototoxicity in human Keratinocytes in presence of UVA at 320 to 400 nm; assay type: cell-based; conditions: light or radiation study
[18] = Dark toxicity in human Melanocytes assessed as reduction in cell viability; assay type: cell-based, Melanocyte
Melanocyte = assay: Phototoxicity in human Melanocytes in presence of UVA at 320 to 400 nm; assay type: cell-based; conditions: light or radiation study
[19] = Dark toxicity in human Keratinocytes assessed as reduction in cell viability; assay type: cell-based, Keratinocyte
[20] = Ratio of IC50 for dark toxicity in human Keratinocytes to IC50 for phototoxicity in human Keratinocytes in presence of UVA at 320 to 400 nm; assay type: cell-based, Keratinocyte; conditions: read-out: Ratio IC50
[21] = Ratio of IC50 for dark toxicity in human Melanocytes to IC50 for phototoxicity in human Melanocytes in presence of UVA at 320 to 400 nm; assay type: cell-based, Melanocyte; conditions: read-out: Ratio IC50
[22] = Covalent protein binding in human liver microsomes assessed per mg protein in presence of NADPH; assay type: ADME, Microsome

Chain of Phosphatidylinositol 4-kinase beta (Q9UBF8 whole entry): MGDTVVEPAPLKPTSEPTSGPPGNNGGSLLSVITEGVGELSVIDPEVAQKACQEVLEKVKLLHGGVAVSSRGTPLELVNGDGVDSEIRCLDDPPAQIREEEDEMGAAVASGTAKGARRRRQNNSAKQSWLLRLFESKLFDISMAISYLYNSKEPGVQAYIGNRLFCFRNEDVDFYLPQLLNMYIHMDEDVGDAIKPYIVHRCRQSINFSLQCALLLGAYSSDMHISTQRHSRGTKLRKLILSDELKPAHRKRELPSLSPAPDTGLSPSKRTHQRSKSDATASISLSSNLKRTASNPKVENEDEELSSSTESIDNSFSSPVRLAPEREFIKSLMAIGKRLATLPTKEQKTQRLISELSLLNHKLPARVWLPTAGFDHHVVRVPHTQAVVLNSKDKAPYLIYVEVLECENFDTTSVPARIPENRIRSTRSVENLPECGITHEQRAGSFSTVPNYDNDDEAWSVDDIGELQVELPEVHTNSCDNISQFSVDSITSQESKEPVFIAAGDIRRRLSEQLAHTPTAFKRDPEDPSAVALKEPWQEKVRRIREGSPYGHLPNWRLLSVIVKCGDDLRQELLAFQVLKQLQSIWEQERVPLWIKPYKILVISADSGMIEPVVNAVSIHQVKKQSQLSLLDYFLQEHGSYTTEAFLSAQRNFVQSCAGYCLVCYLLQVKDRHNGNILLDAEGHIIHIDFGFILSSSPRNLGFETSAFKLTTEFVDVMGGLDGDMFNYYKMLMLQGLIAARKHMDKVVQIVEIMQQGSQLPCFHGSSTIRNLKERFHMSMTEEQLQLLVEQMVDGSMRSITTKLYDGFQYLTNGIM
Chain of hERG (KCNH2) (Q12809 whole entry): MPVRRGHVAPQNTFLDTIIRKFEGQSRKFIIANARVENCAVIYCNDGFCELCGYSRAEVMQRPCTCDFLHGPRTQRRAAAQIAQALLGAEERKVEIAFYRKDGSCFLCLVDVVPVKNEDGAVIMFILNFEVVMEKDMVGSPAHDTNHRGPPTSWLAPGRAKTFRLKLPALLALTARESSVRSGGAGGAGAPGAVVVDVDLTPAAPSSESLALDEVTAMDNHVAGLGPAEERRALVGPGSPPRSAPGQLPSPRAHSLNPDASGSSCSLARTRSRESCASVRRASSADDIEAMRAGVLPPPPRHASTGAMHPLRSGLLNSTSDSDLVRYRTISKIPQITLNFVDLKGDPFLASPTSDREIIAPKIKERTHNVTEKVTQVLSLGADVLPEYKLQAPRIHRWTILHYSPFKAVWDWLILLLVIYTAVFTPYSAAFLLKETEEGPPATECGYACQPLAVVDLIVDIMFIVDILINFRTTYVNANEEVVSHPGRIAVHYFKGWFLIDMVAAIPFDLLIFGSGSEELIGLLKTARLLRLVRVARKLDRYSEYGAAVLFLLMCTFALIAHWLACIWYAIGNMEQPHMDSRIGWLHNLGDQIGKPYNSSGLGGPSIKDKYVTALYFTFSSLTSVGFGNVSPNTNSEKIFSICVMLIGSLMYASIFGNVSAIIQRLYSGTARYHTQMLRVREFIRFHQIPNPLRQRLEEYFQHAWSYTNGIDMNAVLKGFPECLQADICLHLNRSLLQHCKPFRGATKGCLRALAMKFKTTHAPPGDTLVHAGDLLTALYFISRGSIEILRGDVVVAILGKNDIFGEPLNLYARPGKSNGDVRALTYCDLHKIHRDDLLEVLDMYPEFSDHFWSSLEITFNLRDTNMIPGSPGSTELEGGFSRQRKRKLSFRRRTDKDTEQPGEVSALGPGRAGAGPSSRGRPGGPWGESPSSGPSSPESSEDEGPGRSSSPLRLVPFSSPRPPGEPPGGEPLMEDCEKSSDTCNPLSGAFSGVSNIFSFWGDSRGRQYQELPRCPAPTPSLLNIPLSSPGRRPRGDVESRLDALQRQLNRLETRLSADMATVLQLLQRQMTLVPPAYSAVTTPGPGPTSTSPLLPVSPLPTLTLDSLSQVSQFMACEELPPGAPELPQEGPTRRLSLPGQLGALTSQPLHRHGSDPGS
Chain of Voltage-gated inwardly rectifying potassium channel KCNH2 (Q12809 whole entry): as above

Compound: Cc1nsc(N2CC3CCC(C2)C3Nc2nc3c(-c4ccc(F)c(F)c4F)cccn3n2)n1 (configuration not stated)
- fraction unbound [1]: 0.004
- fraction unbound [2]: 0.003
- fraction unbound [3]: 0.22
- fIC50 [4]: 1 nM
- pIC50 (Gamma-secretase): 8.35
- pIC50 [5]: 8.40
- fIC50 (Mus musculus [6]): 0.9 nM
- Activity (Mus musculus [7]): 56%
- remaining Abeta42 level (% of control) (Mus musculus [8]): 27%
- remaining Abeta42 level (% of control) (Mus musculus [9]): 22%
- logD [10]: 4.1 to 4.14
- solubility [11]: 3.8 to 3.86 µg/mL (≈ 8.06 to 8.19 µM)
- hepatocyte CLint [12]: 6.6 µL/min/1e6 cells
- hepatocyte CLint [13]: 5.4 µL/min/1e6 cells
- pIC50 [14]: > 5.70
- IC20 (hERG (KCNH2)): < 1000 nM
- pKd [15]: 6.92
- Activity (Mus musculus [16]): 75%
- fIC50 (Mus musculus [17]): 0.5 nM
- pIC50 (Mus musculus [17]; Mus musculus): 6.80
- pIC50 (Keratinocyte): 5.78
- pIC50 [18]: < 4.42
- pIC50 (Melanocyte): 5.78
- pIC50 [19]: < 4.42
- selectivity ratio [20]: 22.9 to 23
- selectivity ratio [21]: 22.9 to 23
- PB [22]: 105 pmol
